Test results reported in patent US8192962B2, “Processes for detecting toxic substances” (Daikin Industries, Ltd., priority 2001, dated 2012).

System: Unknown protein yeast genes
Assay: DNA chip mRNA expression in yeast, unknown protein yeast genes (Table 1)
Type: cell-based, Saccharomyces cerevisiae S288C
In short: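 Whole-genome yeast DNA chip hybridization (65° C., >12 h) of Cy-labeled cDNA from S288C cells exposed 2 h at 25° C. to a sub-lethal toxicant dose in YPD; value is intensity relative to chemical-free control.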

Measured: The level of expressed mRNA in the presence of chemical substance/The level of expressed mRNA in the absence of chemical substance

COc1cc(CNC(=O)CCCCC=CC(C)C)ccc1O [(12), 8-methyl-N-vanillyl-6-nonenamide]
0.7: yeast gene YFL032W, incubated two hours with chemical substance | yeast gene YGR130C, incubated two hours with chemical substance
1.4: yeast gene YBL107C | yeast gene YGR110W
1.7: yeast gene YER004W, incubated two hours with chemical substance
0.5: yeast gene YCR102C
1.3: yeast gene YGL053W, incubated two hours with chemical substance | yeast gene YJL082W, incubated two hours with chemical substance | yeast gene YJL151C, incubated two hours with chemical substance | yeast gene YJR008W, incubated two hours with chemical substance
1.1: yeast gene YEL001C, incubated two hours with chemical substance | yeast gene YER035W, incubated two hours with chemical substance | yeast gene YGL047W, incubated two hours with chemical substance | yeast gene YHR199C, incubated two hours with chemical substance | yeast gene YIL087C, incubated two hours with chemical substance
1.2: yeast gene YBL048W | yeast gene YDL072C, incubated two hours with chemical substance | yeast gene YFL006W, incubated two hours with chemical substance
1.6: yeast gene YGL121C | yeast gene YGR221C, incubated two hours with chemical substance
1.5: yeast gene YDR411C, incubated two hours with chemical substance | yeast gene YFL010C, incubated two hours with chemical substance
1.0: yeast gene YDL222C, incubated two hours with chemical substance | yeast gene YDR330W, incubated two hours with chemical substance | yeast gene YER158C, incubated two hours with chemical substance | yeast gene YER163C, incubated two hours with chemical substance | yeast gene YGR101W, incubated two hours with chemical substance | yeast gene YIL041W, incubated two hours with chemical substance | yeast gene YJL057C, incubated two hours with chemical substance | yeast gene YJL066C, incubated two hours with chemical substance | yeast gene YJL152W, incubated two hours with chemical substance | yeast gene YJL161W, incubated two hours with chemical substance | yeast gene YJL171C, incubated two hours with chemical substance | yeast gene YKL071W
1.8: yeast gene YHR138C, incubated two hours with chemical substance
0.6: yeast gene YAL053W, incubated two hours with chemical substance | yeast gene YCR043C | yeast gene YHL042W | yeast gene YIL012W | yeast gene YIL057C | yeast gene YIL089W | yeast gene YIL102C
0.9: yeast gene YDL204W, incubated two hours with chemical substance | yeast gene YDR545W, incubated two hours with chemical substance | yeast gene YER079W, incubated two hours with chemical substance | yeast gene YER106W, incubated two hours with chemical substance | yeast gene YER175C, incubated two hours with chemical substance | yeast gene YGL199C, incubated two hours with chemical substance | yeast gene YGR154C, incubated two hours with chemical substance | yeast gene YIL023C, incubated two hours with chemical substance | yeast gene YJR054W, incubated two hours with chemical substance
0.8: yeast gene YDR511W, incubated two hours with chemical substance | yeast gene YFL024C | yeast gene YGL037C, incubated two hours with chemical substance
